Where two headings read alike, the source gives them in different places.
Tests used:
[1] = system: T. gondii RH strain (RH-Tub-eYFP) tachyzoites; assay: microbe, parasite or virus in culture; type: cell-based, Toxoplasma gondii; conditions: for percent parasite growth at 2 µg/mL: Toxoplasma gondii
[2] = system: P. falciparum 3D7 parasites; assay: P. falciparum growth inhibition assay, 2-cycle (120 h treatment), delayed-death screen and dose-response; type: cell-based, Plasmodium falciparum; conditions: for activity at 2 µg/mL: Plasmodium falciparum
[3] = system: P. falciparum 3D7 parasites; assay: P. falciparum growth inhibition assay, 1-cycle (72 h treatment), SYBR DNA staining (library screen at 2 μg/mL and dose-response); type: cell-based, Plasmodium falciparum; conditions: for activity at 2 µg/mL: Plasmodium falciparum
[4] = 72 h, T. gondii, 72 h, screen at 2 μg/mL, replicate 1, read-out: Tg_72h_%Growth_Rep1
[5] = 72 h, T. gondii, 72 h, screen at 2 μg/mL, replicate 2, read-out: Tg_72h_%Growth_Rep2
[6] = library screen at 2 μg/mL, 72 h, % growth, replicate 1
[7] = library screen at 2 μg/mL, 72 h, % growth, replicate 2
[8] = library screen at 2 μg/mL, 120 h, % growth, replicate 1
[9] = library screen at 2 μg/mL, 120 h, % growth, replicate 2

CC[C@@H](C(=O)[C@@H](C)[C@@H](O)[C@H](C)[C@@H]1O[C@@H]([C@@H](CC)C(=O)O)CC[C@@H]1C)[C@H]1O[C@]2(C=C[C@@H](O)[C@]3(CC[C@@](C)([C@H]4CC[C@](O)(CC)[C@H](C)O4)O3)O2)[C@H](C)C[C@@H]1C [Salinomycin]
Tg_72h_%Growth_Rep2 ([1]; T. gondii, 72 h, parasite screen 2 μg/mL, % growth, replicate 2): 0.21% | percent parasite growth at 2 µg/mL ([1]; 72 h, T. gondii, 72 h, parasite screen 2 μg/mL, % growth, replicate 1, read-out: Tg_72h_%Growth_Rep1): 2.46% | Pf_120h_%Growth_Rep2 ([2]; P. falciparum, 120 h, parasite screen 2 μg/mL, % growth, replicate 2): 1.02% | activity at 2 µg/mL ([2]; 3D7, 120 h, P. falciparum, 120 h, parasite screen 2 μg/mL, % growth, replicate 1, read-out: Pf_120h_%Growth_Rep1): 13.6% | Pf_72h_%Growth_Rep2 ([3]; P. falciparum, 72 h, parasite screen 2 μg/mL, % growth, replicate 2): -1.92% | activity at 2 µg/mL ([3]; 3D7, 72 h, P. falciparum, 72 h, parasite screen 2 μg/mL, % growth, replicate 1, read-out: Pf_72h_%Growth_Rep1): 3.76%

CCCCCCCCCC(=O)N[C@@H](Cc1c[nH]c2ccccc12)C(=O)N[C@H](CC(N)=O)C(=O)N[C@@H](CC(=O)O)C(=O)N[C@@H]1C(=O)NCC(=O)N[C@@H](CCCN)C(=O)N[C@@H](CC(=O)O)C(=O)N[C@H](C)C(=O)N[C@@H](CC(=O)O)C(=O)NCC(=O)N[C@H](CO)C(=O)N[C@@H]([C@H](C)CC(=O)O)C(=O)N[C@@H](CC(=O)c2ccccc2N)C(=O)O[C@@H]1C [Daptomycin]
percent parasite growth at 2 µg/mL [1, 4]: 132% | percent parasite growth at 2 µg/mL [1, 5]: 90.1% | activity at 2 µg/mL ([2]; 3D7, P. falciparum, 120 h, screen at 2 μg/mL, replicate 1, read-out: Pf_120h_%Growth_Rep1): 90.7% | activity at 2 µg/mL ([2]; 3D7, P. falciparum, 120 h, screen at 2 μg/mL, replicate 2, read-out: Pf_120h_%Growth_Rep2): 116% | activity at 2 µg/mL ([3]; 3D7, P. falciparum, 72 h, screen at 2 μg/mL, replicate 1, read-out: Pf_72h_%Growth_Rep1): 88.5% | activity at 2 µg/mL ([3]; 3D7, P. falciparum, 72 h, screen at 2 μg/mL, replicate 2, read-out: Pf_72h_%Growth_Rep2): 114%

COC1=C(OC)C(=O)C(C)=C(C)C1=O [Aurantiogliocladin]
Tg_72h_%Growth_Rep1 [1, 6]: 92.07% | Tg_72h_%Growth_Rep2 [1, 7]: 99.65% | Pf_120h_%Growth_Rep1 [2, 8]: 10.46% | Pf_120h_%Growth_Rep2 [2, 9]: -13.06% | Pf_72h_%Growth_Rep1 [3, 6]: 5.55% | Pf_72h_%Growth_Rep2 [3, 7]: 9.01%

Aflatoxin G2
Tg_72h_%Growth_Rep1 [1]: 134.03% | Tg_72h_%Growth_Rep2 [1]: 98.49% | Pf_120h_%Growth_Rep1 [2]: 98.15% | Pf_120h_%Growth_Rep2 [2]: 97.03% | Pf_72h_%Growth_Rep1 [3]: 83.21% | Pf_72h_%Growth_Rep2 [3]: 86.33%

C=C1[C@@H](C)[C@H]2[C@H](Cc3ccccc3)NC(=O)[C@]23[C@H](OC(C)=O)/C=C/[C@@](C)(O)C(=O)[C@@H](C)C/C=C/[C@H]3[C@@H]1O [Cytochalasin D]
percent parasite growth at 2 µg/mL [1, 4]: 2.17% | percent parasite growth at 2 µg/mL [1, 5]: 2.65% | activity at 2 µg/mL ([2]; 3D7, 120 h, P. falciparum, 120 h, screen at 2 μg/mL, replicate 1, read-out: Pf_120h_%Growth_Rep1): 3.12% | activity at 2 µg/mL ([2]; 3D7, 120 h, P. falciparum, 120 h, screen at 2 μg/mL, replicate 2, read-out: Pf_120h_%Growth_Rep2): 4.41% | activity at 2 µg/mL ([3]; 3D7, 72 h, P. falciparum, 72 h, screen at 2 μg/mL, replicate 1, read-out: Pf_72h_%Growth_Rep1): 6.33% | activity at 2 µg/mL ([3]; 3D7, 72 h, P. falciparum, 72 h, screen at 2 μg/mL, replicate 2, read-out: Pf_72h_%Growth_Rep2): 2.44%

CC[C@H]1OC(=O)[C@H](C)[C@@H](O[C@H]2C[C@@](C)(OC)[C@@H](O)[C@H](C)O2)[C@H](C)[C@@H](O[C@@H]2O[C@H](C)C[C@H](NC)[C@H]2O)[C@](C)(O)C[C@@H](C)C(=O)[C@H](C)[C@@H](O)[C@]1(C)O [Demethylerythromycin A, N-]
Tg_72h_%Growth_Rep1 ([1]; T. gondii, 72 h, screen at 2 μg/mL, replicate 1): 111.33% | Tg_72h_%Growth_Rep2 ([1]; T. gondii, 72 h, screen at 2 μg/mL, replicate 2): 103.06% | Pf_120h_%Growth_Rep1 ([2]; P. falciparum, 120 h, screen at 2 μg/mL, replicate 1): 108.40% | Pf_120h_%Growth_Rep2 ([2]; P. falciparum, 120 h, screen at 2 μg/mL, replicate 2): 97.63% | Pf_72h_%Growth_Rep1 ([3]; P. falciparum, 72 h, screen at 2 μg/mL, replicate 1): 87.44% | Pf_72h_%Growth_Rep2 ([3]; P. falciparum, 72 h, screen at 2 μg/mL, replicate 2): 93.22%

Cc1c2c(c(O)c3c(O)cccc13)C(=O)O[C@@H]2[C@H]1[C@H](N(C)C)C(O)=C(C(N)=O)C(=O)[C@@H]1O [Apooxytetracycline, beta-]
Tg_72h_%Growth_Rep1 [1, 6]: 117.82% | Tg_72h_%Growth_Rep2 [1, 7]: 102.07% | Pf_120h_%Growth_Rep1 [2, 8]: 69.86% | Pf_120h_%Growth_Rep2 [2, 9]: 97.44% | Pf_72h_%Growth_Rep1 [3, 6]: 86.47% | Pf_72h_%Growth_Rep2 [3, 7]: 89.55%

CO[C@@]12[C@H](COC(N)=O)C3=C(C(=O)C(C)=C(N)C3=O)N1C[C@@H]1N[C@@H]12 [BIA-M1183]
Tg_72h_%Growth_Rep1 ([1]; T. gondii, 72 h, parasite screen at 2 μg/mL, % growth, replicate 1): 127.95% | Tg_72h_%Growth_Rep2 ([1]; T. gondii, 72 h, parasite screen at 2 μg/mL, % growth, replicate 2): 82.68% | Pf_120h_%Growth_Rep1 ([2]; P. falciparum 3D7, 120 h, parasite screen at 2 μg/mL, % growth, replicate 1): 92.29% | Pf_120h_%Growth_Rep2 ([2]; P. falciparum 3D7, 120 h, parasite screen at 2 μg/mL, % growth, replicate 2): 100.91% | Pf_72h_%Growth_Rep1 ([3]; P. falciparum 3D7, 72 h, parasite screen at 2 μg/mL, % growth, replicate 1): 82.66% | Pf_72h_%Growth_Rep2 ([3]; P. falciparum 3D7, 72 h, parasite screen at 2 μg/mL, % growth, replicate 2): 112.82%
